Results: article PMC3839906, “Structural and Physiological Analyses of the Alkanesulphonate-Binding Protein (SsuA) of the Citrus Pathogen Xanthomonas citri” (PLoS ONE, 2013)

What was measured:
[1] = molecular target: T1, SsuA (alkanesulphonate-binding protein) (Xanthomonas citri, UniProt A0AAI7ZHA1); test: thermal shift assay, SYPRO orange; details: 5 mM ligand, 6 µM SsuA, 20 mM Tris pH 7.4, 50 mM NaCl
T1 construct: mature periplasmic protein without the 42-residue signal peptide (972 bp amplicon), pET28a N-terminal His6 tag with thrombin site, tag cut with thrombin; expressed in E. coli BL21(DE3); one molecule per asymmetric unit

[2] = molecular target: T1, SsuA (alkanesulphonate-binding protein); test: X-ray crystal structure of the complex; details: ligand-binding pocket

T1 sequence (A0AAI7ZHA1 entry or part of it): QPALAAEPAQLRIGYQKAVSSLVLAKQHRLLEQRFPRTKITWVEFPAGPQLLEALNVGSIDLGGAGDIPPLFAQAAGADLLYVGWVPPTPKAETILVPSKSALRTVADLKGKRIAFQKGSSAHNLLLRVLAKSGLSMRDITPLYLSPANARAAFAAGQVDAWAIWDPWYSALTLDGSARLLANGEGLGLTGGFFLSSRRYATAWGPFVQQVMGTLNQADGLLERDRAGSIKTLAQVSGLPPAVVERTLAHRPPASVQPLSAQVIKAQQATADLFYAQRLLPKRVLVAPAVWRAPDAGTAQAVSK

SMILES: O=S(=O)(O)CCN1CCN(CCO)CC1 [HEPES, 4-(2-hydroxyethyl)-1-piperazine ethane sulphonic acid]
- Tm (unbound form 39.5 °C) [1]: 45.8 °C
- X-ray crystal structure of the complex ([2]; 0.1 M HEPES pH 7.5, 1.6 M ammonium sulphate, 0.1 M NaCl): PDB codes 3E4R (SsuA + HEPES), 3KSX (SsuA + MOPS) and 3KSJ (SsuA + MES)

SMILES: O=S(=O)(O)CCNC1CCCCC1 [CHES, 2-(n-cyclohexylamino)-ethanesulphonic acid]
- Tm (unbound form 39.5 °C) [1]: 43.5 °C

SMILES: O=S(=O)(O)CCCN1CCOCC1 [MOPS, 3-morpholinopropane-1-sulphonic acid]
- Tm (unbound form 39.5 °C) [1]: 51 °C
- X-ray crystal structure of the complex ([2]; PDB code as in the deposition statement b39 (b17 prints 3KSJ for MOPS)): PDB codes 3E4R (SsuA + HEPES), 3KSX (SsuA + MOPS) and 3KSJ (SsuA + MES)

SMILES: O=S(=O)(O)CCN1CCOCC1 [MES, 2-(n-morpholino)-ethanesulphonic acid]
- Tm (unbound form 39.5 °C) [1]: 47.1 °C
- X-ray crystal structure of the complex ([2]; PDB code as in the deposition statement b39 (b17 prints 3KSX for MES)): PDB codes 3E4R (SsuA + HEPES), 3KSX (SsuA + MOPS) and 3KSJ (SsuA + MES)
